Test system: Ph9F-1x
Assay: Adipogenesis of fish adipose-derived cell line (AdipoRed / Hoechst 33342 staining)
Type: cell-based, Pangasianodon hypophthalmus
Settings: for adipogenesis induction efficiency: addition to adipogenesis induction composition (FIGS. 22 and 25)
Procedure: Adipogenesis of adipose-derived cells were induced. The cells were resuspended at cell density of 100,000 cells/ml of complete growth medium and seeded at 100 μl/well into gelatin-coated 96-well flat-bottom black plates. The cells were incubated at 28° C. in a humidified atmosphere containing 5% CO2. […] After 3 and 6 days of adipogenic induction, the cells were induced with DMEM, 15% FBS, 0.1% fish serum, 300 U/ml of penicillin, 300 μg/mL of streptomycin, and adipogenic induction cocktail 2, containing 167 nM of insulin. Linoleic acid-oleic acid albumin (LAOA, Sigma-Aldrich), docosahexaenoic acid (DHA, Cayman Chemical), eicosapentaenoic acid (EPA, Cayman Chemical), oleic acid albumin (OAA, Sigma Aldrich), and linoleic acid albumin (LAA, Sigma Aldrich) can also be added to the adipogenic induction cocktail, if required. […] The cells were imaged using N-STORM/TIRF microscope and analysed using NIS-Element software.

[1] = 100 μM vitamin, Essential 6, fish serum, LAOA, IBMX, dexamethasone, after 6 days

Compound	percentage of matured adipocytes [1]	total lipid content [1]	further results
CC(C)(CO)[C@H](O)C(=O)NCCC(=O)O [D-pantothenic acid]	did not significantly enhance	did not significantly enhance	
CC/C=C\C/C=C\C/C=C\C/C=C\C/C=C\C/C=C\CCC(=O)O [DHA, docosahexaenoic acid]			nuclei count after adipogenesis (100 μM, final 3 days of adipogenesis): significantly reduced
O=C(O)CCCC[C@@H]1SC[C@@H]2NC(=O)N[C@@H]21 [biotin]	did not significantly enhance	did not significantly enhance	
O=C1O[C@H]([C@@H](O)CO)C(O)=C1O [vitamin C]			adipogenesis induction efficiency: no adverse effects
C=C1CC[C@H](O)C/C1=C/C=C1\CCC[C@]2(C)[C@@H]([C@H](C)CCCC(C)C)CC[C@@H]12 [vitamin D3]	did not significantly enhance	did not significantly enhance	total lipid content of matured adipocyte (intensity) (100 μM, 6 days, AdipoRed fluorescence intensity, borderline statistical significance): 3.5×10^9; adipogenesis induction efficiency: no adverse effects
CC(=O)Oc1c(C)c(C)c2c(c1C)CCC(C)(CCC[C@H](C)CCC[C@H](C)CCCC(C)C)O2 (stereo partly drawn) [α-tocopherol acetate]	did not significantly enhance	did not significantly enhance	
oleic acid albumin [OAA]			percentage of matured adipocytes (100 μM, 6 days, as compared to LAA): significantly enhanced

Source: patent US20240309326A1, “Method of Isolating Adipose-Derived Cell Lines and Uses Thereof” (AGENCY FOR SCIENCE, TECHNOLOGY AND RESEARCH, priority 2021, published 2024)
